Data published in US12479791B2, “Cationic lipid” (Takeda Pharmaceutical Company Limited, priority 2018, dated 2025).

Key:
[1] = Analysis of luciferase siRNA-encapsulated lipid nanoparticle (Production Example 1); type: physicochemical; conditions: for Rate of encapsulation / Average particle size: luc siRNA lipid nanoparticle; for siRNA concentration: luc siRNA lipid nanoparticle dispersion after dialysis and filtration; for Average particle size: cationic lipid:DPPC:cholesterol:GS-020=60:10.6:28:1.4, Z-average, dynamic light scattering
From the text: (§1) The particle size of the lipid particle (in the composition) can be measured by a known approach. For example, the particle size can be calculated as a Z-average particle size by the cumulant analysis of an autocorrelation function using a particle size measurement apparatus Zetasizer Nano ZS (Malvern Instruments) based on a dynamic light scattering measurement technique. The particle size (average particle size) of the lipid particle (in the composition) is, for example, 10 to 200 nm, preferably 60 to 170 nm.
(§2) The concentration and rate of encapsulation of the nucleic acid (e.g., siRNA or mRNA) in the composition of the present invention can be measured by a known approach. For example, the nucleic acid is fluorescently labeled using Quant-iT™ RiboGreen® (Invitrogen Corp.), and the fluorescence intensity can be measured to determine the concentration and the rate of encapsulation. The concentration of the nucleic acid in the composition can be calculated using a calibration curve prepared from aqueous nucleic acid solutions having known concentrations. The rate of encapsulation can be calculated on the basis of the difference in fluorescence intensity between the presence and absence of addition of Triton-X 100 (surfactant for disrupting the lipid particle). The concentration of the nucleic acid in the composition refers to the total concentration of a nucleic acid encapsulated in the lipid particle and an unencapsulated nucleic acid. The rate of encapsulation refers to the ratio of the nucleic acid encapsulated in the lipid particle to all nucleic acids in the composition.
A lipid mixture (cationic lipid:DPPC:cholesterol:GS-020=60:10.6:28:1.4, molar ratio) was dissolved in 90% of EtOH and 10% of a 25 mM acetate buffer solution (pH 4.0) to obtain a 7.4 mg/ml lipid solution. Luciferase (luc) siRNA (see Table 2) was dissolved in a 25 mM acetate buffer solution (pH 4.0) to obtain a 0.15 mg/ml nucleic acid solution. The obtained lipid solution and nucleic acid solution were mixed at a flow rate ratio of 1 ml/min:5 ml/min at room temperature using Asia microfluidic system (Syrris Ltd.) to obtain a dispersion containing a composition. The obtained dispersion was dialyzed against water at room temperature for 1 hour and against PBS at room temperature for 18 hours using Slyde-A-Lyzer (molecular weight cutoff: 20 K, Thermo Fischer Scientific Inc.). Subsequently, the dialysate was filtered through a 0.2 μm syringe filter (Iwaki) and preserved at 4° C. Hereinafter, the particle size of the lipid particle in the composition was calculated as a Z-average particle size by the cumulant analysis of an autocorrelation function using a particle size measurement apparatus Zetasizer Nano ZS (Malvern Instruments) based on a dynamic light scattering measurement technique.

[2] = test system: human liver cancer-derived cell line Hep3B stably expressing luciferase; assay: Transfection of cultured cell with siRNA (luciferase knockdown); type: cell-based; conditions: lipid particle containing luciferase siRNA, 48 hours after addition, read-out: siRNA concentration necessary for 50% knockdown
Description: A human liver cancer-derived cell line Hep3B stably expressing luciferase was cultured at a cell density of 6000 cells/well in a 96-well plate. 24 hours later, 10 μl of the lipid particle containing luciferase siRNA was added to the medium. 48 hours after the addition of siRNA, the amount of decrease in expression (knockdown) of luciferase was measured using Picagene LT2.0 kit (Toyobo Co., Ltd.).

[3] = test system: Col1a1 gene; assay: Hepatic collagen 1a1 gene knockdown in CCl4 hepatic fibrosis mouse model; type: in vivo; conditions: male Balb/c mouse, Col1a1 siRNA + FVII siRNA 0.1 + 0.1 mg/kg intravenous, liver 4 days after administration, qPCR normalized with GAPDH, vs siRNA non-administration group
Description: (§3) The Col1a1 siRNA-encapsulated lipid nanoparticle was administered at 0.1 mg/kg into the orbital plexus of the vein of each 8-week-old male Balb/c mouse. 3 hours later, CCl4 mixed with corn oil was orally administered at a dose of 0.1 mL/kg (10 mL/kg) by forced single-dose administration (n=6 in each group). 4 days after the administration of the siRNA-encapsulated lipid nanoparticle, the liver was collected from the mouse euthanized under anesthesia, followed by gene expression analysis by quantitative PCR. The Col1a1 gene expression level and the FVII gene expression level were normalized with the expression level of GAPDH. The amount of decrease in Col1a1 gene expression as compared with a siRNA non-administration group was regarded as the rate of knockdown. In mice intravenously given the siRNA-encapsulated lipid nanoparticle formed using the compound of the present invention, the knockdown of the activated stellate cell marker gene Col1a1 gene was strongly observed, as compared with the rate of knockdown of the hepatic parenchymal cell marker gene FVII.

[4] = test system: FVII gene; assay: Hepatic FVII gene knockdown in CCl4 hepatic fibrosis mouse model; type: in vivo; conditions: male Balb/c mouse, Col1a1 siRNA + FVII siRNA 0.1 + 0.1 mg/kg intravenous, liver 4 days after administration, qPCR normalized with GAPDH
Description: as §3

[5] = test system: human colorectal cancer-derived cell line HCT116; assay: Transfection of cultured cell with mRNA (luciferase luminescence); type: cell-based; conditions: 10 ng luciferase mRNA, 24 hours
Description: A human colorectal cancer-derived cell line HCT116 was cultured at a cell density of 6000 cells/well in a 96-well plate. 24 hours later, 10 μl of the lipid particle containing 10 ng of luciferase mRNA was added to the medium. 24 hours after the addition of mRNA, a reagent of Picagene LT2.0 kit (Toyobo Co., Ltd.) was added to the culture plate of HCT116. The luminescence (count per sec (cps)) of luciferase was measured using a luminescence plate reader EnVision (PerkinElmer, Inc.).

[6] = Analysis of luciferase mRNA-encapsulated lipid nanoparticle (Production Example 2); type: physicochemical; conditions: for Rate of encapsulation / Average particle size: luciferase mRNA lipid nanoparticle; for mRNA concentration: luciferase mRNA lipid nanoparticle dispersion after dialysis and filtration; for Average particle size: cationic lipid:DPPC:cholesterol:GS-020=60:10.6:28:1.4
From the text: as §1, §2
A lipid mixture (cationic lipid:DPPC:cholesterol:GS-020=60:10.6:28:1.4, molar ratio) was dissolved in 90% of EtOH and 10% of water to obtain an 8.5 mg/ml lipid solution. Luciferase mRNA (TriLink BioTechnologies, Inc.) was dissolved in a 10 mM 2-morpholinoethanesulfonic acid (MES) buffer solution (pH 4.0) to obtain a 0.22 mg/ml nucleic acid solution. The obtained lipid solution and nucleic acid solution were mixed at a flow rate ratio of 3 ml/min:6 ml/min at room temperature using NanoAssemblr apparatus (Precision NanoSystems Inc.) to obtain a dispersion containing a composition. The obtained dispersion was dialyzed against water at room temperature for 1 hour and against PBS at 4° C. for 48 hours using Slyde-A-Lyzer (molecular weight cutoff: 20 K, Thermo Fischer Scientific Inc.). Subsequently, the dialysate was filtered through a 0.2 μm syringe filter (Iwaki) and preserved at 4° C.

[7] = Analysis of Col1a1 siRNA + FVII siRNA-encapsulated lipid nanoparticle (Production Example 3); type: physicochemical; conditions: for Rate of encapsulation / Particle size: Col1a1 siRNA + FVII siRNA lipid nanoparticle; for Particle size: cationic lipid:DPPC:cholesterol:GS-020=60:10.6:28:1.4; for Col1a1 siRNA + FVII siRNA concentration: lipid nanoparticle dispersion after dialysis and filtration
From the text: as §1, §2
A lipid mixture (cationic lipid:DPPC:cholesterol:GS-020=60:10.6:28:1.4, molar ratio) was dissolved in 90% of EtOH and 10% of a 25 mM acetate buffer solution (pH 4.0) to obtain a 7.4 mg/ml lipid solution. siRNA against collagen 1a1 (Col1a1) and siRNA against factor VII (FVII) were dissolved in equal weights in a 25 mM acetate buffer solution (pH 4.0) to obtain a 0.15 mg/ml nucleic acid solution. The sequences of Col1a1 siRNA and FVII siRNA were quoted from Hepatology, […], No. 4, 2015, and Silence, Vol. 1, No. 16, 2010, respectively. The obtained lipid solution and nucleic acid solution were mixed at a flow rate ratio of 1 ml/min:5 ml/min using a microfluidic mixing apparatus NanoAssemblr (Precision NanoSystems Inc.) to obtain a dispersion containing a composition. The obtained dispersion was dialyzed against water at room temperature for 1 hour and against PBS at room temperature for 18 hours using Slyde-A-Lyzer (molecular weight cutoff: 20 K, Thermo Fischer Scientific Inc.). Subsequently, the dialysate was filtered through a 0.2 μm syringe filter (Iwaki) and preserved at 4° C. The siRNA-encapsulated lipid nanoparticle was very favorably formed using the compound of the present invention.

| Compound | Rate of encapsulation [1] [%] | siRNA concentration [1] [µg/mL] | Average particle size [1] [nm] | IC50 [2] [nM] | Rate of Col1a1 knockdown [3] [%] | Rate of FVII knockdown [4] [%] | Average luminescence (cps) of 3 wells ([5]; Table 10 (PBS control 293)) [cps] | Rate of encapsulation [6] [%] | mRNA concentration [6] [µg/mL] | Average particle size [6] [nm] | Rate of encapsulation [7] [%] | Particle size [7] [nm] | Col1a1 siRNA + FVII siRNA concentration [7] [µg/mL] | Average luminescence (cps) of 3 wells ([5]; Table 8 (PBS control 1293)) [cps] | Average luminescence (cps) of 3 wells ([5]; Table 9 (PBS control 80)) [cps] |
| --- | --- | --- | --- | --- | --- | --- | --- | --- | --- | --- | --- | --- | --- | --- | --- |
| CCCCCCCC(=O)OCC(COC(=O)CCCCCCC)(COC(=O)CCCCN(C)C)COC(=O)C(CCCCCC)CCCCCC [Example 3, 2-(((5-(Dimethylamino)pentanoyl)oxy)methyl)-2-(((2-hexyloctanoyl)oxy)methyl)propane-1,3-diyl dioctanoate] | 96 | 445 | 81 | 55 |  |  |  |  |  |  |  |  |  |  |  |
| CCCCCCC(=O)OCC(COC(=O)CCCCN(C)C)(COC(=O)C(CCCCC)CCCCC)COC(=O)C(CCCCC)CCCCC [Example 5, 2-(((5-(Dimethylamino)pentanoyl)oxy)methyl)-2-((heptanoyloxy)methyl)propane-1,3-diyl bis(2-pentylheptanoate)] | 96 | 120 | 83 | 28 |  |  |  |  |  |  |  |  |  |  |  |
| CCCCCCCC(=O)OCC(COC(=O)CCCCCCC)(COC(=O)CCCCN(C)C)COC(=O)CCC(CCCCCCC)CCCCCCC [Example 1, 3-((5-(Dimethylamino)pentanoyl)oxy)-2,2-bis((octanoyloxy)methyl)propyl 4-heptylundecanoate] |  |  |  |  | 86 | 0 | 110733 | 96 | 145 | 112 | 98 | 111 | 128 |  |  |
| CCCCCCCC(=O)OCC(COC(=O)CCCCN(C)C)(COC(=O)C(CCCCCC)CCCCCC)COC(=O)C(CCCCCC)CCCCCC [Example 7, 2-(((5-(Dimethylamino)pentanoyl)oxy)methyl)-2-((octanoyloxy)methyl)propane-1,3-diyl bis(2-hexyloctanoate)] | 97 | 376 | 73 | 1.2 |  |  |  |  |  |  |  |  |  |  |  |
| CCCCCCCC(=O)OCC(COC(=O)CCCCCCC)(COC(=O)CCCCN(C)C)COC(=O)CCC(CCCC)C(CCCC)CCCC (centres unmarked) [Example 10, 3-((5-(Dimethylamino)pentanoyl)oxy)-2,2-bis((octanoyloxy)methyl)propyl 4,5-dibutylnonanoate] |  |  |  |  | 77 | 0 | 112893 | 96 | 83 | 123 | 97 | 101 | 137 | 500747 | 176813 |
| CCCCCCCC(=O)OCC(COC(=O)CCCN(C)C)(COC(=O)C(CCCCCC)CCCCCC)COC(=O)C(CCCCCC)CCCCCC [Example 6, 2-(((4-(Dimethylamino)butanoyl)oxy)methyl)-2-((octanoyloxy)methyl)propane-1,3-diyl bis(2-hexyloctanoate)] | 93 | 389 | 77 | 41 |  |  |  |  |  |  |  |  |  |  |  |
| CCCCCCC(=O)OCC(COC(=O)CCCN(C)C)(COC(=O)C(CCCCC)CCCCC)COC(=O)C(CCCCC)CCCCC [Example 4, 2-(((4-(Dimethylamino)butanoyl)oxy)methyl)-2-((heptanoyloxy)methyl)propane-1,3-diyl bis(2-pentylheptanoate)] | 91 | 121 | 73 | 190 |  |  |  |  |  |  |  |  |  |  |  |
| CCCCCCCC(=O)OCC(COC(=O)CCCCCCC)(COC(=O)CCCN(C)C)COC(=O)C(CCCCCC)CCCCCC [Example 2, 2-(((4-(Dimethylamino)butanoyl)oxy)methyl)-2-(((2-hexyloctanoyl)oxy)methyl)propane-1,3-diyl dioctanoate] | 96 | 415 | 71 | 14 |  |  |  |  |  |  |  |  |  |  |  |
